System: H1299 cells
Test: MTT cell viability, H1299
Format: cell-based, human
Conditions: 48 h, Fig. 7B; for effect of ATP on viability in HN-ID media: HN-immunodepleted media, versus no ATP; for effect on cell viability: control media, three experiments in triplicate
Experimental: Human NSCLC cell lines, A549 (ATCC CCL‐185) and H1299 (ATCC CRL‐5803), were purchased from the American Type Culture Collection (ATCC, Manassas, VA, USA). Cells were seeded as we reported earlier in 5 mL HyClone Dulbecco's modified Eagle's medium/nutrient mixture F‐12 (DMEM/F12) (GE Healthcare Life Sciences, Pittsburgh, PA, USA), supplemented with 10% Fetalgro bovine growth serum (FBS; RMBIO, Missoula, MT, USA), 50 U·mL^−1 penicillin, and […] streptomycin (Invitrogen, Life Technologies, Carlsbad, CA, USA) in 25‐cm^2 tissue culture flasks, and allowed to grow overnight in an incubator at 37 °C, 95% humidity, and 5% CO2. The cells were counted after trypan blue staining, with a hemocytometer.
The 3‐(4,5‐dimethylthiazol‐2‐yl)‐2,5‐diphenyl‐tetrazolium bromide (MTT) reduction assay (Sigma‐Aldrich), used to measure cell viability, was carried out as we reported earlier. Cells were seeded in 96‐well plates as indicated in 200 μL 10% FBS‐supplemented media per well and maintained overnight at 95% humidity and 5% CO2. After an overnight incubation, the media were replaced with 200 μL serum‐free media, and the cells were further incubated, without or with different treatments, for 24, 48, or 72 h. The final concentration of DMSO in each well never exceeded 0.1%. The cells were then incubated for 4 h with MTT (0.5 mg·mL^−1) in the dark. The media were carefully removed, and DMSO (100 μL) was added to dissolve the formazan crystals. The absorbance was measured at 570 nm in a plate reader. Untreated cells or wells containing only DMSO and media were used as a positive and negative control, respectively. Statistical analysis was conducted using […] PRISM version 8.4.3 for Windows. Significant values were considered at P < 0.05 and more significant values at P < 0.01, compared with the control.
Conditioned media were immunodepleted (ID) according to the methods previously described and our recently published report. Briefly, specific antibodies were bound to ELISA wells overnight (1 : 1000 dilution). The wells were then blocked and washed, then 300 μL of the conditioned medium (0.5 μg·μL^−1) treated as indicated, 72 h postserum starvation, was incubated with the antibodies bound to ELISA wells for 24 h. The ID media were then carefully removed and analyzed for the presence of the target protein or peptide by ELISA. The same amount of protein (3 µL of 600 µg·mL^−1 total protein) of each sample was analyzed in the experiments. Significant depletion (95–100%) was observed upon using each of the antibodies employed in this study.
Since addition of ATP appears to increase binding of HN to Aβ, and conversely, decreases the interaction of Aβ with AChE (Figs 3, 4, 5, 6), we tested the effect of added ATP on A549 and H1299 cell viability (Fig. 7). Exogenously added ATP at either 100 µM or 1 mM had no effect on viability of either A549 (Fig. 7A) or H1299 cells (Fig. 7B). […] To determine the effect of ID of AChE or HN in the absence or presence of added ATP on cell viability, ID media were prepared by first seeding 0.2 × 10^5 cells per well in 96‐well plates in 10% FBS‐supplemented media. The next day, the cells were incubated in serum‐free medium for 72 h, then ID of AChE or HN as described in Materials and methods. For cell viability assays, cells were seeded in 96‐well plates at 0.2 × 10^5 cells per well in 200 µL 10% FBS‐supplemented media followed by incubation in serum‐free medium for 12 h, then treated with the ID media for 48 h. […]

## Nc1ncnc2c1ncn2[C@@H]1O[C@H](COP(=O)(O)OP(=O)(O)OP(=O)(O)O)[C@@H](O)[C@H]1O [ATP, Adenosine triphosphate]
AChE-immunodepleted media
  effect of ATP on viability in AChE-depleted media: did not affect cell viability
ATP 100 µM
  effect of ATP on viability in HN-ID media: No change in cell viability
  effect on cell viability: no effect
ATP 1 mM
  effect of ATP on viability in HN-ID media: No change in cell viability
  effect on cell viability: no effect
